Data reported in ChEMBL document CHEMBL2434925, “Synthesis and antiviral activity of a novel class of (5-oxazolyl)phenyl amines” (Eur J Med Chem, 2013).

Columns and labels:
[1] = Cytotoxicity against human Huh7.5 cells after 96 hrs by MTT assay; format: cell-based, Huh-7
Hepatitis C virus = assay: Antiviral activity against HCV expressing pFL-J6/JFH/JC1 infected in human Huh7.5 cells assessed as inhibition of viral RNA synthesis after 96 hrs by one-step RT-PCR analysis; format: functional, organism-based, Hepacivirus hominis; conditions: Huh-7, 96 h
Huh-7 = assay: Selectivity index, ratio of CC50 for human Huh7.5 cells to IC50 for HCV expressing pFL-J6/JFH/JC1; format: functional

CCC[C@H](NC(=O)[C@@H]1[C@H]2CCC[C@H]2CN1C(=O)[C@@H](NC(=O)[C@@H](NC(=O)c1cnccn1)C1CCCCC1)C(C)(C)C)C(=O)C(=O)NC1CC1 [TELAPREVIR]
CC50 at 96 h [1]: 37.5 µM
IC50 (Hepatitis C virus): < 0.14 µM
Ratio CC50/IC50 (Huh-7): > 268
